Measured values from publication PMC10976043, “Function and Mechanism of Antiviral Wasp Venom Peptide Protopolybia-MP III and Its Derivatives against HSV-1” (Toxins, 2024).
Ends that are not written are not given here.

How the values were obtained:
[1] = test system: HSV-1; assay: HSV-1 life cycle stage assay (different modes of peptide treatment), qPCR; assay type: cell-based, herpes simplex virus type 1
Description: To determine the exact step at which Protopolybia-MP III blocks HSV-1 infection, we conducted an experiment with different modes of peptide treatment in Vero cells (Figure 3A). […] Then, we detected the protective effect of Protopolybia-MP III by pretreating Vero cells with 20 μg/mL Protopolybia-MP III before HSV-1 infection.
Figure 3 Protopolybia-MP III inhibits multiple phases of the HSV-1 life cycle. (A) Schematic diagram for studying stage at which Protopolybia-MP III acts on the HSV-1 life cycle. (B) Effects of Protopolybia-MP III on the attachment, entry/fusion, and post-entry stages of the HSV-1 life cycle. Vero cells were infected with HSV-1 at an MOI of 1 and treated with 20 μg/mL Protopolybia-MP III as described in (A). After 24 h, cells were collected, and intracellular HSV-1 RNA was analyzed by qPCR. (C) The effect of Protopolybia-MP III on cell protection against HSV-1 infection. Vero cells were treated with 20 μg/mL Protopolybia-MP III or PBS and infected with HSV-1 at an MOI of 1 as described in (A). After 24 h, the cells were collected, and intracellular HSV-1 RNA was analyzed by qPCR. ns, no significance. ** p < 0.01. *** p < 0.001.
(§1) Cells were collected and lysed using TRIzol reagent (Beyotime Biotechnology, Shanghai, China) to release the intracellular total RNA, followed by precipitation with isopropanol. The first-strand cDNA was reverse-transcribed by the HiScript III 1st Strand cDNA Synthesis Kit (+gDNA wiper) (Vazyme, Nanjing, China). The cDNA was quantitated by qPCR with primers using Taq Pro Universal SYBR qPCR Master Mix (Vazyme). The HSV-1 primers were 5′-[…]-3′ (sense) and 5′-[…]-3′ (antisense). The monkey GAPDH primers were 5′-[…]-3′ (sense) and 5′-[…]-3′ (antisense). The human GAPDH primers were 5′-[…]-3′ (sense) and 5′-[…]-3′ (antisense). qPCR experiments were performed on a Bio-Rad CFX96 Touch (Pleasanton, CA, USA) according to the manufacturer’s instructions.

[2] = test system: HSV-1 virion; assay: HSV-1 free virion infectivity assay, qPCR; assay type: cell-based, herpes simplex virus type 1; details: then Vero cells infected, 24 h
Description: Figure 5 Protopolybia-MP III destroys the integrity of HSV-1 free virions. (A) Schematic diagram for studying the effect of Protopolybia-MP III on HSV-1 free virion infectivity. (B) Effects of Protopolybia-MP III on HSV-1 free virion infectivity at different temperatures. HSV-1 (MOI = 1) and 20 μg/mL Protopolybia-MP III or PBS were coincubated at 4 °C, 22 °C, and 37 °C for 1 h, and then Vero cells were infected as described in (A). After 24 h, cells were collected, and intracellular HSV-1 RNA was analyzed by qPCR. (C) Effects of different concentrations of Protopolybia-MP III on HSV-1 free virion infectivity. HSV-1 (MOI = 1) and 1 or 10 μg/mL Protopolybia-MP III or PBS were coincubated at 37 °C for 1 h, and then Vero cells were infected as described in (A). After 24 h, cells were collected, and intracellular HSV-1 RNA was analyzed by qPCR. (D,E) The effect of Protopolybia-MP III on HSV-1 free virion integrity. HSV-1 and 20 μg/mL Protopolybia-MP III or PBS were coincubated at 37 °C for 1 h. Then, after centrifuging for 2 h at 40,000 rpm at 4 °C, the contents of HSV-1 gB in the supernatant and precipitate were detected by Western blotting (D). In addition, the structure of HSV-1 virions after incubation with Protopolybia-MP III was observed by electron microscopy. The red arrow points to a destroyed HSV-1 virion. *** p < 0.001.
Figure 7 Antiviral activity analysis of Protopolybia-MP III mutants. (A) Amino acid sequences of Protopolybia-MP III mutants. Identical amino acids among Protopolybia-MP I, Protopolybia-MP III, and its mutants are marked in blue, and different amino acids are marked in red. (B) Suppression of Protopolybia-MP I, Protopolybia-MP III, and its mutants on intracellular HSV-1 content. Cells were preincubated with 20 μg/mL peptides or PBS for 1 h and then infected with HSV-1 at an MOI of 1. After 24 h, the cells were collected. Intracellular HSV-1 ICP0 protein levels were analyzed by Western blotting. The ratios of HSV-1 ICP0 to GAPDH were calculated by ImageJ software. (C) Inhibition of HSV-1 free virion infectivity by Protopolybia-MP I, Protopolybia-MP III, and its mutants. HSV-1 (MOI = 1) and 5 μg/mL peptides or PBS were coincubated at 37 °C for 1 h, and the mixtures were then used to infect Vero cells. After 24 h, cells were collected, and intracellular HSV-1 RNA was analyzed by qPCR. ns, no significance. * p < 0.05. ** p < 0.01. *** p < 0.001.
as §1

[3] = Vero cells, 20 μg/mL, HSV-1 MOI 1, 24 h, qPCR of HSV-1 RNA

INWLKLGKAVIDAL-NH2 [Protopolybia-MP III]
protection of cells from HSV-1 infection (pretreatment) ([1]; Vero cells pretreated with 20 μg/mL before HSV-1 infection, MOI 1, 24 h, qPCR): almost no effect
inhibitory rate, attachment stage of the HSV-1 life cycle [1, 3]: 57%
inhibitory rate, entry/fusion stage of the HSV-1 life cycle [1, 3]: 84%
inhibitory rate, post-entry stage of the HSV-1 life cycle [1, 3]: 66%
HSV-1 virions inactivated ([2]; 1 μg/mL coincubated with HSV-1 (MOI 1) at 37 °C for 1 h): 51%
HSV-1 virions inactivated ([2]; 10 μg/mL coincubated with HSV-1 (MOI 1) at 37 °C for 1 h): 99%
inhibition rate of HSV-1 virion infectivity ([2]; 20 μg/mL coincubated with HSV-1 (MOI 1) at 4 °C for 1 h): above 99%
inhibition rate of HSV-1 virion infectivity ([2]; 20 μg/mL coincubated with HSV-1 (MOI 1) at 22 °C for 1 h): above 99%
inhibition rate of HSV-1 virion infectivity ([2]; 20 μg/mL coincubated with HSV-1 (MOI 1) at 37 °C for 1 h): above 99%
inhibition rate of HSV-1 free virion infectivity ([2]; mutant comparison (Figure 7C): 5 μg/mL coincubated with HSV-1 (MOI 1) at 37 °C for 1 h): 97.3%
